How the values of the series were obtained: The stability of clopidogrel besylate in the presence of various tabletting excipients was investigated. For this purpose, clopidogrel besylate was thoroughly triturated with the excipient in the ratio 1:1 and stored for two weeks at 40° C. and 75% relative humidity. The content of clopidogrel besylate in the sample was then determined.

Where two headings read alike, the source gives them in different places.

As to “5-methyl-a-(4,5,6,7-tetrahydro[2,3-c]thienopyridyl)(2-chlorophenyl)acetate [Clopidogrel besylate]”, the “Clopidogrel besylate Residual content (%)” value reads like this: (1:1 with AcDiSol, two weeks at 40° C. and 75% relative humidity) 94.00%; (1:1 with Lactose, two weeks at 40° C. and 75% relative humidity) 99.86%; (1:1 with Macrogol 6000, two weeks at 40° C. and 75% relative humidity) 90.07%; (1:1 with Mannitol, two weeks at 40° C. and 75% relative humidity) 99.85%; (1:1 with Mg-stearate, two weeks at 40° C. and 75% relative humidity) 51.99%; (1:1 with Microcrystalline cellulose, two weeks at 40° C. and 75% relative humidity) 99.24%. Moreover, the “Clopidogrel besylate Residual content (%)” value is 99.44% (1:1 with Silica, two weeks at 40° C. and 75% relative humidity); 99.50% (1:1 with Stearic acid, two weeks at 40° C. and 75% relative humidity); 99.76% (no excipient, stored two weeks at 40° C. and 75% relative humidity, content vs beginning of storage). Further, the “Compatibility with excipient (decomposition of the active substance)” value is “incompatible” (with Macrogol 6000), “incompatible” (with Magnesium stearate), “incompatible” (with croscarmellose sodium (AcDiSol)) and “incompatible” (with sodium lauryl sulfate).

(Values after patent US20070048370A1, “Pharmaceutical formulation for salts of monobasic acids with clopidogrel” (priority 2005, published 2007).)
